The values that follow come from patent publication US10058587B2, “Peptide composition for cancer treatment by inhibiting TRPV6 calcium channel activity” (priority 2008, dated 2018).

Entries after “also recorded” stand apart in the source; their conditions may differ. Where no end group is shown, it is not given here.

The subject of data set [1] is MCF 7 breast cancer cell line. Put plainly: Induction of apoptosis (APO-ONE caspase 3/7) and cell viability (CellTiter Blue). Type of data set: cell-based, human. How it is done: MCF-7, MDA-MB-231, MDA-MB-415, MDA-MB-468 were grown in DMEM modified with 10% (v/v) fetal bovine serum, 2 mM L-glutamine and 50 ug/mL each of penicillin and streptomycin.
(§1) The levels of apoptotic induction and cell viability were determined by multiplexing the measurements for single samples. CellTiter Blue and APO-ONE assay systems from Promega allows the determination of cell viability correlated to cell number, and induction of apoptosis. This protocol uses a fluorgenic peptide that contains a peptide recognition-sequence for caspase 3 and caspase 7, […] proteolytic enzymes of the apoptosis cascade. The CellTiter Blue reagent was added to wells in a 96-well plate containing cells under test, immediately after addition of peptide solution or vehicle. About 5000 cells were plated into the wells the day before. At the chosen time (Day 1, Day 2 etc.) the fluorescence was measured at 590 nm (emission) after excitation at 560 nm. The caspase 3/7 activity was measured (485 nm Ex/527 nm Em) in the same wells after adding 120 uL of the Apo-ONE reagent, freeze fracturing at −80° C. for 1 hr, and incubating for 1 hr at room temperature.
(§2) For this work, the concentrations of SorC13 and SorC27 used were 0 uM, 1 uM, 10 uM and 100 uM. The experiments extended over a 5 to 7 day period. All measurements were done in quadruplicate with both a blank (no cells) and control (vehicle, no peptide) used to correct the test measurements. The time-response data, and the dose-response data were plotted as means±standard error of the mean. Any statistical comparisons were done with the Student's t-test or by ANOVA analysis over the dose course. The level of statistical significance was considered to be the 95% confidence interval (i.e., p≤0.05).
To benchmark the effect of both C-type peptides to the gold-standard treatment presently used against breast cancer (Paclitaxel), SorC13, SorC27 and Paclitaxel (10 uM) were compared. Both the APO-ONE assay (Promega) and the CellTiter Blue were used on the panel of breast cancer cell lines. The data were compared directly in terms of mean response and tested for significant difference.

Data set [2] has as its system OV90 ovarian cancer cell line. Described as above. The data set is classed as cell-based, human. The arrangement: key to Decline in cell viability: decreased (+); or not (−). As to the method: OV-90 was cultured in a 1:1 mixture of MCDB 105 medium and Medium 199 supplemented with 15% (v/v) fetal bovine serum.
as §1, §2
To compare the effect of the two SorC-peptides against the gold-standard treatment for ovarian cancers SorC13 or SorC27 was compared to treatment with a carboplatin and taxol (CAT) cocktail (10 uM Paclitaxel, 20 mM carboplatin) using the APO-ONE assay, which measures the combined activities of caspase 3 and caspase 7. Because of the mixed treatment (CAT), the effects were compared in terms of the ratio of treatment:control. If no effect was noted then the ratio=1. Comparisons of the treatment:control ratios were examined with the Student's t-test at a confidence level of 95%. Ratios of larger than a value of unity indicated a positive effect. The effects are illustrated in FIG. 5.

The test system of another data set is mealworm larvae. In words: Mealworm larva paralytic bioassay. Type of data set: in vivo.
A short description of data set [3]: Physiological effects after i.v. injection into CD1 mice (blood pressure, heart rate, neurological/behavioral). Type of data set: in vivo. As to the method:
After in vivo i.v. injection into CD1 mice, SorC13 caused a small spike (approximately 25%) in blood pressure in the first 15 min which disappeared by 1 hour.

The nature of data set [4]: Degradation rate in human plasma (HPLC). The data set is classed as in vitro ADME. How it is done: Rat plasma was obtained from blood taken from sacrificed rats (Sprague-Dawley) and placed into heparinized glass vials to prevent clotting. Whole blood was centrifuged at 8000×g for 5 minutes to spin down the cells leaving the plasma as supernatant. Human whole blood samples from healthy humans were taken in lithium-heparinized vacuum tubes. The samples were placed into 2.0 mL microcentrifuge tubes and centrifuged at 8000×g for 5 min. The plasma was carefully separated from red blood cells and used immediately.
Determination of degradation rate of the C-peptides was done by measuring, with the HPLC protocol, the amount of either SorC13 or SorC27 in dosed plasma samples, after time. Sample tubes (500 uL) containing 2 uL of 2 mM Pefabloc were previously prepared for sample delivery SorC13 (1.0 mg) or SorC27 (2.0 mg) were dissolved in 1.0 mL of fresh plasma (37° C.) and placed in an incubating water bath at 37° C. A sample (100 uL) was taken immediately and quenched in sample tubes containing 2 uL of 2 mM Pefabloc, mixed vigorously and immediately frozen at −80° C. This initial sample represented time zero for the run. At successive time intervals of 5 minutes, 100 uL samples were withdrawn, quenched in Pefabloc, mixed, and frozen at −80° C. until analysis.
The rat plasma degradation rate was determined for the plasma from three different rats, while the rate of degradation in human plasma used six separate plasma samples. The data used were the means (±SEM) and were fitted to a simple one-phase exponential decay model to determine the half-life of the two peptides. This also allowed the calculation of a static degradation rate. FIG. 11 is illustrative of the rate at which SorC27 was degraded in human plasma.

A short description of data set [5]: Repeated dose toxicity study. Type of data set: in vivo, NOD/SCID mice. How it is done: In order to investigate repeated dose toxicity, SorC27 at 400 mg/kg formulated in saline was injected (i.p.) into NOD/SCID mice every day for 12 days. The animals were observed cage-side each day and examined at the end of the experimental period.
Where [6] appears, read: 400 mg/kg, daily i.p. injection for 12 days.

For the sequence KEFLHPSKVDLPR [SorC13, KEFLHPSKVDLPR], the results for the “Apoptosis Index (1 = no effect)” value in data set [1] (SorC13 1 uM), in data set [1] (SorC13 10 uM) and in data set [1] (SorC13 100 uM) were 1.2, 1.1 and 2.4, respectively. Further, the “apoptosis (treatment:control ratio) compared with CAT cocktail” value in data set [2] (CAT = 10 uM Paclitaxel, 20 mM carboplatin) was “produced earlier and more intense apoptosis cascade than the CAT cocktail”. The “Physiol. effects in vivo (mealworm larvae); 5 mg/kg” value in the data set with mealworm larvae is listed as “Not paralytic”.
EGKLSSNDTEGGLCKEFLHPSKVDLPR [SorC27]: in data set [3] (5 mg/kg), the “Physiol. effects in vivo (mice) @ 5 mg/kg” value is given as “None observed over 72 hr”. In addition, the “change in blood pressure or heart rate” value in data set [3] (i.v., 1 hour measurement period) is “no change in blood pressure or heart rate”. The neurological/behavioral changes result in data set [3] (i.v., over 72 hours) is recorded as “no also neurological/behavioral changes”. Further, the “binding to plasma proteins” value in data set [4] (human plasma) is reported as “doesn't bind to”. Also, in data set [4] (human, plasma, 37° C.), the half-life is 20 min. The “toxicity of multiple dose” value in data set [5] (400 mg/kg i.p. each day for 12 days) is listed as “no indication of toxicity; also recorded: no toxic effect, weight loss or change in organs on necropsy”. For the same sequence, the “Repeated dose in NOD/SCID mice: body weight” value in data set [5] (setting [6]) was “No loss of body weight”. Further, in data set [5] (setting [6]), the “Repeated dose in NOD/SCID mice: toxic effects” value is given as “no toxic effects noted”. Further, the “Apoptosis Index (1 = no effect)” value stood at 1.0 in data set [1] (Day 2, SorC27 10 μM); 2.8 in data set [1] (Day 2, SorC27 100 μM); 2.9 in data set [1] (Day 3, SorC27 10 μM); 4.6 in data set [1] (Day 3, SorC27 100 μM); 1.8 in data set [2] (Day 2, SorC27 100 uM); 1.2 in data set [2] (Day 3, SorC27 1 uM). Further, the “Apoptosis Index (1 = no effect)” value was 1.9 in data set [2] (Day 3, SorC27 10 uM) and 1.9 in data set [2] (Day 3, SorC27 100 uM). For the same sequence, the “induction of apoptosis compared with Paclitaxel (10 uM)” value in data set [1] (SorC27 10 uM) is “more effective at inducing a faster and more intense apoptotic cascade than Paclitaxel”. In data set [2] (SorC27), the “Decline in cell viability” value is on record as “+”. Besides, the “Physiol. effects in vivo (mealworm larvae); 5 mg/kg” value in the data set with mealworm larvae is “Not paralytic”.
